Results: article PMC7254866 (ACS chemical biology, 2019)

Legend:
[1] = tested on: FpL2-6, H11G11, Rg3, and Rh2 GUS enzymes; test: Catalytic efficiency across the four regorafenib-glucuronide processing enzymes; type: biochemical; settings: 4-MUG versus regorafenib-glucuronide
[2] = tested on: gut microbial GUS enzymes in mouse fecal samples; type: in vitro ADME, mice (C57BL/6 and BALB/c)
G380M variant of FpL2-6 = test: Regorafenib-glucuronide processing by G380M variant of FpL2-6; type: biochemical, Faecalibacterium prausnitzii
[3] = tested on: intestinal homogenate lysates (cecum, small intestine, large intestine); test: Regorafenib-glucuronide conversion in intestinal homogenates of SPF mice; type: in vitro ADME, C57BL/6J mice
[4] = tested on: cecum and cecal contents of germ-free mice; test: Regorafenib-glucuronide conversion in ceca of germ-free mice; type: in vitro ADME, germ-free C57BL/6J mice; settings: cecum and cecal contents of 5 GF mice, 48 h incubation
[5] = tested on: gut microbial GUS enzymes in human feces; type: in vitro ADME
FpL2-6 = FpL2-6 (Faecalibacterium prausnitzii, UniProt D4K3H3); test: Inhibition of FpL2-6 GUS; type: biochemical
(UniProt D5GU71) = test: Inhibition of H11G11 GUS; type: biochemical, uncultured taxon
Rh2GUS = Rh2GUS (Roseburia hominis, UniProt A0A395V8I7); test: Inhibition of Rh2GUS; type: biochemical

Sequence of (UniProt D5GU71) (D5GU71 1-754): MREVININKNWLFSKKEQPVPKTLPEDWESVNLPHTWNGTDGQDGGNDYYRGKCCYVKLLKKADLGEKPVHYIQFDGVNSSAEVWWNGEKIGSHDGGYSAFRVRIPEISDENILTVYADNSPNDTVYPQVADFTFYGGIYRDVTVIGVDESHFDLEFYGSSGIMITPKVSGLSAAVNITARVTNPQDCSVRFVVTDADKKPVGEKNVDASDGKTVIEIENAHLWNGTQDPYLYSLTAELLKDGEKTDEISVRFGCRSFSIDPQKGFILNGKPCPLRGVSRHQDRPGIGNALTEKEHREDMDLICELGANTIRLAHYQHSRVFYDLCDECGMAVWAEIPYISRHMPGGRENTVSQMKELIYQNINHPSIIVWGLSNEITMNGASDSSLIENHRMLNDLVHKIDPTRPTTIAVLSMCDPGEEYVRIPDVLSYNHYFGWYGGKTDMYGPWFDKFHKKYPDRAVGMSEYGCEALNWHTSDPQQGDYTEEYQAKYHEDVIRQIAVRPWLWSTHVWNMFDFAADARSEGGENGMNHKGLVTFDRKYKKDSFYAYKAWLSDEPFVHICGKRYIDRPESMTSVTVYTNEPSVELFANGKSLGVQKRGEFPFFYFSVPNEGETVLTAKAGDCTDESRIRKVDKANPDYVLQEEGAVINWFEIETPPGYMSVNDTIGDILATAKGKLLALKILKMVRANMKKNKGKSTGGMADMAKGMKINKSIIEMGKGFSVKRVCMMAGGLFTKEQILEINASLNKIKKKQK

Cc1cc(=O)oc2cc(O[C@@H]3O[C@H](C(=O)O)[C@@H](O)[C@H](O)[C@H]3O)ccc12 [4-MUG, 4-methylumbelliferyl glucuronide]
rate relative to rates with regorafenib-glucuronide [1]: 10–100 times faster

regorafenib-glucuronide
conversion of regorafenib-glucuronide to regorafenib [2]: no conversion
increase in catalytic efficiency (G380M variant of FpL2-6; G380M variant versus FpL2-6 wild type): 40 fold
catalytic efficiency (G380M variant of FpL2-6; substrate regorafenib-glucuronide, G380M variant of FpL2-6): 4560 s⁻¹ M⁻¹
regorafenib-glucuronide converted to regorafenib ([3]; cecal extracts of SPF mice, 48 h): almost all
conversion of regorafenib-glucuronide to regorafenib ([3]; small and large intestine homogenates, after 48 h): relatively little conversion
reactivation of regorafenib from regorafenib-glucuronide [4]: neither the cecum nor its contents were able to catalyze the reactivation
regorafenib-glucuronide reactivation [5]: no regorafenib-glucuronide reactivation

O=C(c1ccc(OCCN2CCCCC2)cc1)c1c(-c2ccc(O)cc2)sc2cc(O)ccc12 [raloxifene]
IC50 (FpL2-6): 78 ± 9 µM
IC50 ((UniProt D5GU71)): 100 ± 5 µM
IC50 (Rh2GUS): 13 ± 3 µM

Cc1c(-c2ccc(O)cc2)n(Cc2ccc(OCCN3CCCCCC3)cc2)c2ccc(O)cc12 [bazedoxifene]
potency (in words) (Rh2GUS; toward Rh2GUS): low micromolar
